Assay results as given in patent US12052991B2, “Substituted pyridinyloxybenzenes and salts thereof and use thereof as herbicidal agents” (Bayer Aktiengesellschaft, priority 2018, dated 2024).

Experiments:
Type in all cases: in vivo
[1] = tested on: Echinochloa crus-galli (ECHCG); assay: Herbicidal post-emergence action (Table B1); details: rated visually after about 3 weeks, 100% = plants have died, 0% = like control plants
Summary of the method: (§1)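 Application rates of 1280 or 320 g/ha were tested post-emergence on one-leaf-stage greenhouse plants in sandy loam, using WP or EC formulations with 0.5% additive at 600 L/ha. Activity was rated visually against untreated plants about 3 weeks later.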

[2] = tested on: Lolium rigidum (LOLRI); assay: Herbicidal post-emergence action (Table B2); details: rated visually after about 3 weeks, 100% = plants have died, 0% = like control plants
Summary of the method: as §1

[3] = tested on: Poa annua (POAAN); assay: Herbicidal post-emergence action (Table B3); details: rated visually after about 3 weeks, 100% = plants have died, 0% = like control plants
Summary of the method: as §1

[4] = tested on: Setaria viridis (SETVI); assay: Herbicidal post-emergence action (Table B4); details: rated visually after about 3 weeks, 100% = plants have died, 0% = like control plants
Summary of the method: as §1

[5] = tested on: Abutilon theophrasti (ABUTH); assay: Herbicidal post-emergence action (Table B5); details: rated visually after about 3 weeks, 100% = plants have died, 0% = like control plants
Summary of the method: as §1

[6] = tested on: Amaranthus retroflexus (AMARE); assay: Herbicidal post-emergence action (Table B6); details: visual rating about 3 weeks after treatment, 100% = plants have died, 0% = like control plants
Summary of the method: as §1

[7] = tested on: Stellaria media (STEME); assay: Herbicidal post-emergence action (Table B8); details: visual rating about 3 weeks after treatment, 100% = plants have died, 0% = like control plants
Summary of the method: as §1

[8] = tested on: Echinochloa crus-galli (ECHCG); assay: Herbicidal pre-emergence action, test C (Table C1); details: visual scoring after about 3 weeks, 100% = plants have died, 0% = like control plants
Summary of the method: (§2)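 First, weed seeds were sown in sandy loam and covered with soil. Next, aqueous WP/EC preparations plus 0.5% additive were applied to the surface at 600 L/ha (1280 or 320 g/ha). Finally, plants grew in a greenhouse ~3 weeks before visual % scoring against controls.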

[9] = tested on: Lolium rigidum (LOLRI); assay: Herbicidal pre-emergence action, test C (Table C2); details: visual scoring after about 3 weeks, 100% = plants have died, 0% = like control plants
Summary of the method: as §2

[10] = tested on: Poa annua (POAAN); assay: Herbicidal pre-emergence action, test C (Table C3); details: visual scoring after about 3 weeks, 100% = plants have died, 0% = like control plants
Summary of the method: as §2

[11] = tested on: Setaria viridis (SETVI); assay: Herbicidal pre-emergence action, test C (Table C4); details: visual scoring after about 3 weeks, 100% = plants have died, 0% = like control plants
Summary of the method: as §2

[12] = tested on: Abutilon theophrasti (ABUTH); assay: Herbicidal pre-emergence action, test C (Table C5); details: visual scoring after about 3 weeks, 100% = plants have died, 0% = like control plants
Summary of the method: as §2

[13] = tested on: Amaranthus retroflexus (AMARE); assay: Herbicidal pre-emergence action, test C (Table C6); details: visual scoring after about 3 weeks, 100% = plants have died, 0% = like control plants
Summary of the method: as §2

[14] = tested on: Stellaria media (STEME); assay: Herbicidal pre-emergence action, test C (Table C8); details: visual scoring after about 3 weeks, 100% = plants have died, 0% = like control plants
Summary of the method: as §2

[15] = tested on: harmful plants ABUTH, AMARE, ECHCG, LOLRI, MATIN, POAAN, SETVI, STEME, ALOMY, DIGSA, KCHSC and VERPE; assay: Herbicidal post-emergence action, summary of Tables B1-B12; details: application rate of 1280 or 320 g of active ingredient per hectare; summary in words
Summary of the method: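 Activity scored by eye roughly 3 weeks post-treatment against untreated plants, from 0% (no effect) to 100% (plants dead). Application rates were 1280 or 320 g/ha, as aqueous WP/EC spray plus 0.5% additive at 600 L/ha, onto one-leaf-stage weeds grown 2–3 weeks in sandy loam.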

[16] = tested on: harmful plants ABUTH, AMARE, ECHCG, LOLRI, MATIN, POAAN, SETVI, STEME, ALOMY, DIGSA, KCHSC and VERPE; assay: Herbicidal pre-emergence action (test C), summary of Tables C1-C12; details: application rate of 1280 or 320 g of active ingredient per hectare; summary in words
Summary of the method: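 Visual % damage versus untreated plants (0% = like control, 100% = died) was scored after about 3 weeks in the greenhouse. Before emergence, seeds sown in sandy loam got a soil-surface spray of compound as WP or EC plus 0.5% additive, using 600 L/ha water at rates of 1280 or 320 g/ha.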

Row | SMILES | Post-emergence action against Echinochloa crus-galli (ECHCG) ([1]; 320 g/ha) [%] | Post-emergence action against Echinochloa crus-galli (ECHCG) ([1]; 1280 g/ha) [%] | Post-emergence action against Lolium rigidum (LOLRI) ([2]; 1280 g/ha) [%] | Post-emergence action against Poa annua (POAAN) ([3]; 320 g/ha) [%] | Post-emergence action against Poa annua (POAAN) ([3]; 1280 g/ha) [%] | Post-emergence action against Setaria viridis (SETVI) ([4]; 1280 g/ha) [%] | Post-emergence action against Abutilon theophrasti (ABUTH) ([5]; 320 g/ha) [%] | Post-emergence action against Abutilon theophrasti (ABUTH) ([5]; 1280 g/ha) [%] | Post-emergence action against Amaranthus retroflexus (AMARE) ([6]; dosage 320 g/ha) [%] | Post-emergence action against Amaranthus retroflexus (AMARE) ([6]; dosage 1280 g/ha) [%] | Post-emergence action against Stellaria media (STEME) ([7]; dosage 320 g/ha) [%] | Post-emergence action against Stellaria media (STEME) ([7]; dosage 1280 g/ha) [%] | Pre-emergence action against Echinochloa crus-galli (ECHCG) ([8]; dosage 1280 g/ha) [%] | Pre-emergence action against Lolium rigidum (LOLRI) ([9]; dosage 1280 g/ha) [%] | Pre-emergence action against Poa annua (POAAN) ([10]; dosage 320 g/ha) [%] | Pre-emergence action against Poa annua (POAAN) ([10]; dosage 1280 g/ha) [%] | Pre-emergence action against Setaria viridis (SETVI) ([11]; dosage 320 g/ha) [%] | Pre-emergence action against Setaria viridis (SETVI) ([11]; dosage 1280 g/ha) [%] | Pre-emergence action against Abutilon theophrasti (ABUTH) ([12]; dosage 1280 g/ha) [%] | Pre-emergence action against Amaranthus retroflexus (AMARE) ([13]; dosage 320 g/ha) [%] | also measured
1 | Cc1cccc(Oc2ccc(Cl)cn2)c1-c1cc(C(F)F)no1 [Example 1-18, 5-[2-[(5-Chloro-2-pyridyl)oxy]-6-methylphenyl]-3-(difluoromethyl)isoxazole] | 100 | 100 | 100 | 100 | 100 | 100 | 100 | 100 | 100 | 100 | 100 | 100 | 100 | 90 | 90 | 100 | 100 | 100 | 100 | 100 | Post-emergence action against Lolium rigidum (LOLRI) ([2]; 320 g/ha): 90%; Post-emergence action against Setaria viridis (SETVI) ([4]; 320 g/ha): 100%; Pre-emergence action against Echinochloa crus-galli (ECHCG) ([8]; dosage 320 g/ha): 90%; Pre-emergence action against Abutilon theophrasti (ABUTH) ([12]; dosage 320 g/ha): 100%; Pre-emergence action against Amaranthus retroflexus (AMARE) ([13]; dosage 1280 g/ha): 100%; Pre-emergence action against Stellaria media (STEME) ([14]; dosage 320 g/ha): 100%; Pre-emergence action against Stellaria media (STEME) ([14]; dosage 1280 g/ha): 100%; herbicidal activity against the harmful plants of Tables B1-B12 in post-emergence treatment [15]: very good herbicidal activity; herbicidal activity against the harmful plants of Tables C1-C12 in pre-emergence treatment [16]: very good herbicidal activity
2 | Fc1cc(Cl)cnc1Oc1cccc(F)c1-c1cc(C(F)F)no1 [Example 1-19] | 100 | 100 | 100 | 100 | 100 | 100 | 100 | 100 | 100 | 100 | 100 | 100 | 100 | 100 | 100 | 100 | 100 | 100 | 100 | 100 | Post-emergence action against Lolium rigidum (LOLRI) ([2]; 320 g/ha): 100%; Post-emergence action against Setaria viridis (SETVI) ([4]; 320 g/ha): 100%; Pre-emergence action against Echinochloa crus-galli (ECHCG) ([8]; dosage 320 g/ha): 100%; Pre-emergence action against Lolium rigidum (LOLRI) ([9]; dosage 320 g/ha): 100%; Pre-emergence action against Abutilon theophrasti (ABUTH) ([12]; dosage 320 g/ha): 100%; Pre-emergence action against Amaranthus retroflexus (AMARE) ([13]; dosage 1280 g/ha): 100%; Pre-emergence action against Stellaria media (STEME) ([14]; dosage 320 g/ha): 100%; Pre-emergence action against Stellaria media (STEME) ([14]; dosage 1280 g/ha): 100%; herbicidal activity against the harmful plants of Tables B1-B12 in post-emergence treatment [15]: very good herbicidal activity; herbicidal activity against the harmful plants of Tables C1-C12 in pre-emergence treatment [16]: very good herbicidal activity
3 | FC(F)c1cc(-c2ccccc2Oc2ccc(Cl)cn2)on1 [Example 1-35] | 100 | 100 | 100 | 100 | 100 | 100 | 100 | 100 | 100 | 100 | 100 | 100 | 100 | 90 | 100 | 100 | 100 | 100 | 100 | 100 | Pre-emergence action against Abutilon theophrasti (ABUTH) ([12]; dosage 320 g/ha): 100%; Pre-emergence action against Amaranthus retroflexus (AMARE) ([13]; dosage 1280 g/ha): 100%; Pre-emergence action against Stellaria media (STEME) ([14]; dosage 320 g/ha): 100%; Pre-emergence action against Stellaria media (STEME) ([14]; dosage 1280 g/ha): 100%; herbicidal activity against the harmful plants of Tables B1-B12 in post-emergence treatment [15]: very good herbicidal activity; herbicidal activity against the harmful plants of Tables C1-C12 in pre-emergence treatment [16]: very good herbicidal activity
4 | Fc1cc(Cl)cnc1Oc1ccccc1-c1cc(C(F)F)no1 [Example 1-36] | 100 | 100 | 100 | 100 | 100 | 100 | 100 | 100 | 100 | 100 | 100 | 100 | 100 | 90 | 100 | 100 | 100 | 100 | 100 | 100 | Pre-emergence action against Amaranthus retroflexus (AMARE) ([13]; dosage 1280 g/ha): 100%; Pre-emergence action against Stellaria media (STEME) ([14]; dosage 320 g/ha): 100%; Pre-emergence action against Stellaria media (STEME) ([14]; dosage 1280 g/ha): 100%; herbicidal activity against the harmful plants of Tables B1-B12 in post-emergence treatment [15]: very good herbicidal activity; herbicidal activity against the harmful plants of Tables C1-C12 in pre-emergence treatment [16]: very good herbicidal activity
5 | Fc1cccc(Oc2ccc(Br)cn2)c1-c1cc(C(F)F)no1 [Example 1-40] | 100 | 100 | 100 | 100 | 100 | 100 | 100 | 100 | 100 | 100 | 100 | 100 | 100 | 100 | 100 | 100 | 100 | 100 | 100 | 100 | Post-emergence action against Lolium rigidum (LOLRI) ([2]; 320 g/ha): 100%; Post-emergence action against Setaria viridis (SETVI) ([4]; 320 g/ha): 100%; Pre-emergence action against Echinochloa crus-galli (ECHCG) ([8]; dosage 320 g/ha): 100%; Pre-emergence action against Lolium rigidum (LOLRI) ([9]; dosage 320 g/ha): 90%; Pre-emergence action against Abutilon theophrasti (ABUTH) ([12]; dosage 320 g/ha): 100%; Pre-emergence action against Amaranthus retroflexus (AMARE) ([13]; dosage 1280 g/ha): 100%; Pre-emergence action against Stellaria media (STEME) ([14]; dosage 320 g/ha): 100%; Pre-emergence action against Stellaria media (STEME) ([14]; dosage 1280 g/ha): 100%; herbicidal activity against the harmful plants of Tables B1-B12 in post-emergence treatment [15]: very good herbicidal activity; herbicidal activity against the harmful plants of Tables C1-C12 in pre-emergence treatment [16]: very good herbicidal activity
